Values quoted from earlier work, collected in patent US7011849B2, “Second release phase formulation” (Beecham Pharmaceuticals (Pte) Limited, priority 2000, dated 2006).

Conditions: in vivo

For CC1(C)S[C@@H]2[C@H](NC(=O)[C@H](N)c3ccc(O)cc3)C(=O)N2[C@H]1C(=O)O [amoxicillin], the elimination half-life is listed as “about 1.3 hours”.
